Test system: patients after acute myocardial infarction
Experiment: Life quality, Seattle Angina Questionnaire (SAQ), same clinical trial
Assay type: in vivo, human
Settings: 3 months after treatment
Source text: 3508 patients who were in accordance with the diagnostic standards of AMI for 28 days to 2 years and differentiated as Qi deficiency and blood stagnation syndrome by TCM were studied. 0.5 g Chinese medicine composition prepared by the method of EXAMPLE 1 (Coded as QSYQ) was administrated half an hour after meal, 3 times per day.
There were 19 questions in the Seattle angina questionnaire (SAQ), including 5 parts: physical limitation (PL), anginal stability (AS), anginal frequency (AF), treatment satisfaction (TS) and disease perception (DP). After being given necessary explanation by doctors, the questions were answered independently by patients.
They included the overall survival time, angina pectoris score, TCM symptom score and life quality score, where angina pectoris score, TCM symptom score and life quality score were evaluated at randomization, in 1st, 3rd, 6th, 9th, 12th month after treatment and 18th month after follow-up.
All evaluation results of SAQ were described during the period of observation, and Wilcoxon rank sum test was used for inter-group comparison.
The evaluation results in the SAQ were depicted in different observations, and inter-group comparison was tested by Wilcoxon Rank-sum test.

`CC(=O)Oc1ccccc1C(=O)O` [Control group, aspirine] was tested, and the “SAQ 3rd question: <1 time per week, % of cases” value (FAS) was “(21.15%)”, the “SAQ 3rd question: <1 time per week, cases” value (FAS) was 368 and the “SAQ 3rd question: No onset, % of cases” value (FAS) was “(0.00%)”. The “SAQ 3rd question: No onset, cases” value (FAS) was 0, the “SAQ 3rd question: ≧3 times per week, % of cases” value (FAS) was “(42.13%)” and the “SAQ 3rd question: ≧3 times per week, cases” value (FAS) was 733. For the same molecule, the “SAQ 3rd question: ≧4 times per day, % of cases” value (FAS) was “(0.92%)”, the “SAQ 3rd question: ≧4 times per day, cases” value (FAS) was 16 and the “SAQ Question 1-3: Mildly limited, number of patients” value (FAS) was 93. For the same molecule, the “SAQ Question 1-3: Mildly limited, percent of patients” value (FAS) was “(5.33%)”, the “SAQ Question 1-3: Moderately limited, number of patients” value (FAS) was 23 and the “SAQ Question 1-3: Moderately limited, percent of patients” value (FAS) was “(1.32%)”. For the same molecule, the “SAQ Question 1-3: Not limited, number of patients” value (FAS) was 1318, the “SAQ Question 1-3: Not limited, percent of patients” value (FAS) was “(75.57%)” and the “SAQ Question 1-3: Other reason, number of patients” value (FAS) was 9. The “SAQ Question 1-3: Other reason, percent of patients” value (FAS) was “(0.52%)”, the “SAQ Question 1-3: Severely limited, number of patients” value (FAS) was 5 and the “SAQ Question 1-3: Severely limited, percent of patients” value (FAS) was “(0.29%)”. For the same molecule, the “SAQ Question 1-3: Slightly limited, number of patients” value (FAS) was 296, the “SAQ Question 1-3: Slightly limited, percent of patients” value (FAS) was “(16.97%)” and the “SAQ Question 1-4: Mildly limited, number of patients” value (FAS) was 325. For the same molecule, the “SAQ Question 1-4: Mildly limited, percent of patients” value (FAS) was “(18.65%)”, the “SAQ Question 1-4: Moderately limited, number of patients” value (FAS) was 120 and the “SAQ Question 1-4: Moderately limited, percent of patients” value (FAS) was “(6.88%)”. The “SAQ Question 1-4: Not limited, number of patients” value (FAS) was 668, the “SAQ Question 1-4: Not limited, percent of patients” value (FAS) was “(38.32%)” and the “SAQ Question 1-4: Other limited, number of patients” value (FAS) was 12. The “SAQ Question 1-4: Other limited, percent of patients” value (FAS) was “(0.69%)”, the “SAQ Question 1-4: Severely limited, number of patients” value (FAS) was 29 and the “SAQ Question 1-4: Severely limited, percent of patients” value (FAS) was “(1.66%)”. The “SAQ Question 1-4: Slightly limited, number of patients” value (FAS) was 589, the “SAQ Question 1-4: Slightly limited, percent of patients” value (FAS) was “(33.79%)” and the “SAQ Question 1-5: Mildly limited, number of patients” value (FAS) was 311. The “SAQ Question 1-5: Mildly limited, percent of patients” value (FAS) was “(17.84%)”, the “SAQ Question 1-5: Moderately limited, number of patients” value (FAS) was 162 and the “SAQ Question 1-5: Moderately limited, percent of patients” value (FAS) was “(9.29%)”. The “SAQ Question 1-5: Not limited, number of patients” value (FAS) was 709, the “SAQ Question 1-5: Not limited, percent of patients” value (FAS) was “(40.68%)” and the “SAQ Question 1-5: Other reasons, number of patients” value (FAS) was 12. The “SAQ Question 1-5: Other reasons, percent of patients” value (FAS) was “(0.69%)”, the “SAQ Question 1-5: Severely limited, number of patients” value (FAS) was 21 and the “SAQ Question 1-5: Severely limited, percent of patients” value (FAS) was “(1.20%)”. For the same molecule, the “SAQ Question 1-5: Slightly limited, number of patients” value (FAS) was 528, the “SAQ Question 1-5: Slightly limited, percent of patients” value (FAS) was “(30.29%)” and the “SAQ Question 1-9: Mildly limited, % of cases” value (FAS) was “(18.63%)”. The “SAQ Question 1-9: Mildly limited, cases” value (FAS) was 318, the “SAQ Question 1-9: Moderately limited, % of cases” value (FAS) was “(20.04%)” and the “SAQ Question 1-9: Moderately limited, cases” value (FAS) was 342. The “SAQ Question 1-9: Not limited, % of cases” value (FAS) was “(3.57%)”, the “SAQ Question 1-9: Not limited, cases” value (FAS) was 61 and the “SAQ Question 1-9: Other reaons, % of cases” value (FAS) was “(5.98%)”. The “SAQ Question 1-9: Other reaons, cases” value (FAS) was 102, the “SAQ Question 1-9: Severely limited, % of cases” value (FAS) was “(38.90%)” and the “SAQ Question 1-9: Severely limited, cases” value (FAS) was 664. The “SAQ Question 1-9: Slightly limited, % of cases” value (FAS) was “(12.89%)”, the “SAQ Question 1-9: Slightly limited, cases” value (FAS) was 220 and the “SAQ 2nd question: Clearly increased, % of cases” value (PP) was “(0.41%)”. For the same molecule, the “SAQ 2nd question: Clearly increased, cases” value (PP) was 6, the “SAQ 2nd question: Clearly reduced, % of cases” value (PP) was “(22.01%)” and the “SAQ 2nd question: Clearly reduced, cases” value (PP) was 322. The “SAQ 2nd question: Same, % of cases” value (PP) was “(41.97%)”, the “SAQ 2nd question: Same, cases” value (PP) was 614 and the “SAQ 2nd question: Slightly increased, % of cases” value (PP) was “(3.42%)”. For the same molecule, the “SAQ 2nd question: Slightly increased, cases” value (PP) was 50, the “SAQ 2nd question: Slightly reduced, % of cases” value (PP) was “(32.19%)” and the “SAQ 2nd question: Slightly reduced, cases” value (PP) was 471. The “SAQ 3rd question: 1-2 times per week, % of cases” value (PP) was “(32.19%)”, the “SAQ 3rd question: 1-2 times per week, cases” value (PP) was 471 and the “SAQ 3rd question: 1-3 times per day, % of cases” value (PP) was “(3.42%)”. The “SAQ 3rd question: 1-3 times per day, cases” value (PP) was 50, the “SAQ 3rd question: <1 time per week, % of cases” value (PP) was “(22.01%)” and the “SAQ 3rd question: <1 time per week, cases” value (PP) was 322. For the same molecule, the “SAQ 3rd question: No onset, % of cases” value (PP) was “(0.00%)”, the “SAQ 3rd question: No onset, cases” value (PP) was 0 and the “SAQ 3rd question: ≧3 times per week, % of cases” value (PP) was “(41.97%)”. The “SAQ 3rd question: ≧3 times per week, cases” value (PP) was 614 and the “SAQ 3rd question: ≧4 times per day, % of cases” value (PP) was “(0.41%)”.

Reference: patent publication US9211310B2, “Use of a Chinese medicine composition in preparing medicaments for treating secondary prevention of myocardial infarction” (TASLY PHARMACEUTICAL GROUP CO., LTD, priority 2010, dated 2015)
